In data set [1] the test system is IP-10 production in influenza virus-infected U937 cells (H1N1). The data set can be described thus: cells. In kind it is cell-based. Conditions: for EC50: read-out: EC50 IP-10.
In data set [2] the test system is U937 cells.
Data set [3] concerns MCP-1 production in influenza virus-infected U937 cells (H7N8). Description: cells. It counts as cell-based, Human.
The subject of data set [4] is IL-8 production in influenza virus-infected U937 cells (H1N1). Description: cells. It counts as cell-based, Human. The conditions noted are these: for EC50: read-out: EC50 IL-8.
In data set [5] the test system is STAT1 phosphorylation (p-STAT1). In kind it is cell-based, Human.
Data set [6] concerns MCP-1 production in influenza virus-infected U937 cells (H1N1). The data set can be described thus: cells. In kind it is cell-based. The conditions noted are these: for EC50: read-out: EC50 MCP-1; for IC50: read-out: IC50 MCP-1.
Data set [7] deals with IP-10 production in influenza virus-infected U937 cells (H3N2). The data set can be described thus: cells. In kind it is cell-based, Human.
Data set [8] concerns MCP-1 production in influenza virus-infected U937 cells (H3N2). Description: cells. It counts as cell-based, Human.
The subject of data set [9] is IL-8 production in influenza virus-infected U937 cells (H3N2). The data set can be described thus: cells. It counts as cell-based, Human.
Data set [10] concerns ERK phosphorylation (p-ERK). Description: Western blot of phosphorylated ERK in influenza-infected U937 cells. It counts as cell-based, Human. How it is done:
Figure 5 Raf/MEK/ERK and p38 signal pathways are involved in the regulation of cytokines in U937 cells. (A–C) Determination of inhibition rates on IL-8, IP-10, and MCP-1 by each compound in the MAPK group and the distribution of targets between subgroups. U937 cells were infected with influenza A/PuertoRico/8/1934 virus (MOI = 0.1) in the presence of 10 μM of each inhibitor and then incubated at 37°C for 48 h. The distribution of the targets of all the inhibitors in the MAPK group was then analyzed and categorized into subgroups. […] The supernatants were harvested 48 h post-infection, and the levels of IL-8, MCP-1, and IP-10 were measured by AlphaLISA. (E) The cells were treated as in (C) except being lysed 24 h post-infection, and the levels of phosphorylated STAT1, p38, ERK (p-STAT1, p-p38, p-ERK), total STAT1, p38, ERK, and viral protein HA were assessed by western blot. (F) A quantitative analysis of the relative levels of the phosphorylated STAT1, p38, ERK (p-STAT1, p-p38, p-ERK) in (E). The data are representative of at least three independent experiments. n.s. no significance; *p < 0.05; **p < 0.01; ***p < 0.001.
(§1) Figure 6 TKIs repress cytokine production by suppressing the p38 pathway. […] Cells were lysed 24 h post-infection, and the levels of phosphorylated p38 and ERK (p-p38 and p-ERK) and total p38 and ERK were assessed by western blot. A quantification of phosphorylated p38 levels for each drug treatment was included in the right panel of each figure.
Cells were homogenized in RIPA lysis buffer containing a 1% protease inhibitor cocktail (Roche) to extract total protein. Equal amounts of protein homogenates were separated by SDS-PAGE (Bio-Rad) and transferred onto polyvinylidene difluoride membranes (pore size […]; Bio-Rad). […] Protein levels were detected with horseradish peroxidase-tagged secondary antibodies and enhanced chemiluminescence western blot reagents (Advansta), followed by visualization using an enhanced chemiluminescence system (AlphaEase FluorChem System, Alpha Innotech Corp.). Bands were quantified using ImageJ (Ver. 1.46; NIH, Bethesda, MD).
A general note: In western blotting, separated proteins are transferred to a membrane and probed.

Data set [11] concerns IP-10 production in influenza virus-infected U937 cells (H7N8). The data set can be described thus: cells. In kind it is cell-based, Human.
Data set [12] deals with IL-8 production in influenza virus-infected U937 cells (H7N8). Description: cells. In kind it is cell-based, Human.
Data set [13] relates to phosphorylation of p38 (p-p38). The data set can be described thus: Western blot of phosphorylated p38 in influenza-infected U937 cells. In kind it is cell-based, Human. As to the method:
as §1
(§2) Cells were homogenized in RIPA lysis buffer containing a 1% protease inhibitor cocktail (Roche) to extract total protein. Equal amounts of protein homogenates were separated by SDS-PAGE (Bio-Rad) and transferred onto polyvinylidene difluoride membranes (pore size […]; Bio-Rad). The membranes were then blotted with monoclonal antibodies against GAPDH (1:1000, ZSGB-BIO), p38, phosphor-p38, ERK, phospho-ERK, STAT1, phosphor-STAT1 (1:1000; Cell Signaling Technology), STAT3, and phosphor-STAT3 (1:1000; Cell Signaling Technology), respectively. Protein levels were detected with horseradish peroxidase-tagged secondary antibodies and enhanced chemiluminescence western blot reagents (Advansta), followed by visualization using an enhanced chemiluminescence system (AlphaEase FluorChem System, Alpha Innotech Corp.). Bands were quantified using ImageJ (Ver. 1.46; NIH, Bethesda, MD).

Data set [14] concerns STAT3 phosphorylation (p-STAT3). Description: Western blot of phosphorylated STAT3 in influenza-infected U937 cells. The conditions noted are these: 1 μM ponatinib, 24 h. It counts as cell-based, Human. As to the method:
Figure 3 JAK is essential for regulating the production of pro-inflammatory cytokines induced by influenza infection in U937 cells. Inhibition rates on IL-8 (A), IP-10 (B), and MCP-1 (C) by each compound in the PTK group are categorized based on targets. […] The cells were then lysed after 24 h incubation at 37°C, and the levels of phosphorylated STAT1 (p-STAT1), total STAT1, phosphorylated STAT3 (p-STAT3), and total STAT3 were assessed by western blot.
as §2

The subject of data set [15] is influenza virus infection. Also noted: method as in Florence et al., 2018; Chen et al., 2019. Conditions: without compromising viral titers; ref Florence et al., 2018; Chen et al., 2019; cited from earlier work.
Data set [16] has as its target T1, JAK2 (Homo sapiens, UniProt O60674).
T1 construct: purchased KinaseProfiler (Eurofin, Brussels, Belgium)
Description: Cell-free kinase activity assay, JAK2. Conditions: cell-free kinase assay. In kind it is biochemical.

Data set [17] concerns the target JAK1 (Homo sapiens, UniProt P23458). The data set can be described thus: Cell-free kinase activity assay, JAK1. Conditions: cell-free kinase assay.
The nature of data set [18]: in vitro. The conditions noted are these: human, CC50, secondary screen, Supplemental Table 1.
Setting [19] is: secondary screen, Supplemental Table 1.
Setting [20] is: Homo sapiens, U-937, secondary screen, Supplemental Table 1.

Data on three molecules can be found in article PMC11808136, “Screening and identification of host signaling pathways for alleviating influenza-induced production of pro-inflammatory cytokines, IP-10, IL-8, and MCP-1, using a U937 cell-based influenza model” (Frontiers in Microbiology, 2025).

Like-named read-outs stand apart in the source and are kept apart here.

Sequence of JAK1 (P23458 whole entry): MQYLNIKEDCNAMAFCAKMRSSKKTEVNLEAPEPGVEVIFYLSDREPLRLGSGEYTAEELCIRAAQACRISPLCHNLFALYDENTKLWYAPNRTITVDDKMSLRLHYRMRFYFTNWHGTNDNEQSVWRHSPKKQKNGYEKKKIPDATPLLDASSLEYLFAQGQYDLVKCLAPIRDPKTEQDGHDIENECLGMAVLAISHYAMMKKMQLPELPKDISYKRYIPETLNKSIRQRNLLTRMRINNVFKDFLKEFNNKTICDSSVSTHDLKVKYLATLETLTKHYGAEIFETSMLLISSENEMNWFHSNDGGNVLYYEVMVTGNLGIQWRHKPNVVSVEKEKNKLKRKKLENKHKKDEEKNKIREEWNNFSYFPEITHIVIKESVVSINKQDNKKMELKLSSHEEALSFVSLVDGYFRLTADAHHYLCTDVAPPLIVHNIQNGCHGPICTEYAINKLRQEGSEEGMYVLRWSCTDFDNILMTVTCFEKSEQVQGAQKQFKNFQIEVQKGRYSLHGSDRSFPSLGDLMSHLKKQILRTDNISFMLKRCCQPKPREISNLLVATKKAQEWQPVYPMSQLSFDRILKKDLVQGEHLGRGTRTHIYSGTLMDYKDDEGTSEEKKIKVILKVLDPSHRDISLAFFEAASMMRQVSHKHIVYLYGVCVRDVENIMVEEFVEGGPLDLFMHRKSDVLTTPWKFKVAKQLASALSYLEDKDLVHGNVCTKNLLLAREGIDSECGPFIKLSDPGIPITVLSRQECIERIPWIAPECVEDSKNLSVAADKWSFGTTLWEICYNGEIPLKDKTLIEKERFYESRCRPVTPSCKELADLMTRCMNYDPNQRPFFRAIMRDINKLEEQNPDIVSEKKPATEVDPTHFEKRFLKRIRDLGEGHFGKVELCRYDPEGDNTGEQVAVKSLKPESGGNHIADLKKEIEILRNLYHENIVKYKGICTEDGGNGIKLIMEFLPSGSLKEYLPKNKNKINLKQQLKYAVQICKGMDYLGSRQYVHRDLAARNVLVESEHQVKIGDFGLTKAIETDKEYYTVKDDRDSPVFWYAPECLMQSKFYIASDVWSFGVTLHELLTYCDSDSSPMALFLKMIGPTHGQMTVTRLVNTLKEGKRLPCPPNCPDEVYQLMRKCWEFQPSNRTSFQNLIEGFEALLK
T1 sequence (O60674 whole entry): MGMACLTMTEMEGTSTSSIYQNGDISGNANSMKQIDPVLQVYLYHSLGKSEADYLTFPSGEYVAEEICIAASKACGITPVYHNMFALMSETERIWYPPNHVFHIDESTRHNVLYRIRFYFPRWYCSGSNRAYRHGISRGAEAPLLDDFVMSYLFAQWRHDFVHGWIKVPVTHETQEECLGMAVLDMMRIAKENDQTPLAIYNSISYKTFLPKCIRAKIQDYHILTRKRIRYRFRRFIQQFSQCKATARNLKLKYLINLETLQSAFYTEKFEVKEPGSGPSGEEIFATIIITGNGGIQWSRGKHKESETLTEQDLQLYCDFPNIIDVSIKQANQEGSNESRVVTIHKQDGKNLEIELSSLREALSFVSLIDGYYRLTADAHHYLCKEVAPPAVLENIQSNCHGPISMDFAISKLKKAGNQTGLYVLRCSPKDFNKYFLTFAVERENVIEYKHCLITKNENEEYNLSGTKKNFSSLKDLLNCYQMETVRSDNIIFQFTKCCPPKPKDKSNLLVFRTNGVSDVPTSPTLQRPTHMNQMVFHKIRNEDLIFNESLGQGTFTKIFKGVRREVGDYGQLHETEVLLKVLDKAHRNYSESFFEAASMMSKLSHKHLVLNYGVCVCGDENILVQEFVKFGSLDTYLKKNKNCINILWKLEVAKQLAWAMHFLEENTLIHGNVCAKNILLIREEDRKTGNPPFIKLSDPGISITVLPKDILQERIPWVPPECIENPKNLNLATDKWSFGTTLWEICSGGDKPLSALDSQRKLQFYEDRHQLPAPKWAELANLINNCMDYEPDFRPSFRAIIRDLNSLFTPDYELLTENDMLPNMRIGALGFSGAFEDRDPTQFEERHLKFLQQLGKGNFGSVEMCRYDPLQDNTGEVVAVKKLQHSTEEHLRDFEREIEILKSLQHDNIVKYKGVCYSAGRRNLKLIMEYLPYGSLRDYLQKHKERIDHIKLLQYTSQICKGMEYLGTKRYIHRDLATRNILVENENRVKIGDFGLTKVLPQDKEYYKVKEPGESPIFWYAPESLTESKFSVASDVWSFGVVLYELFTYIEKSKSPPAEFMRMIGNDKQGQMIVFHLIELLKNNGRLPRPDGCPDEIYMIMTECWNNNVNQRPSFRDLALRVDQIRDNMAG

A word on the EC50: it is the midpoint of the concentration-response curve. As a reminder, the IC50 is the point on the concentration scale where inhibition reaches its midpoint. `Cc1ccc(Nc2ncc3c(n2)N(C)C(=O)N(c2cc(NC(=O)c4cccc(C(F)(F)F)c4)ccc2C)C3)cn1` [GNF-7]: the EC50 in [1] (U937 cells infected with H1N1) was 71 nM; in data set [1] (setting [19]), 20 nM; in [3] (read-out: EC50 MCP-1), 109 nM; in data set [4], 19 nM; in [4] (setting [19]), less than 5 nM; in data set [6] (U937 cells infected with H1N1), 18 nM. Besides, the EC50 in [6] (setting [19]) turned out to be 10 nM; in [7], 1 nM; in [8], 14 nM; in [9], 27 nM; in data set [11] (read-out: EC50 IP-10), 5 nM; in data set [12] (read-out: EC50 IL-8) it was 14 nM. The CC50 turned out to be 13600 nM in data set [2]; 13600 nM in [2] (U937 cells, Table 1 section H1N1); 13600 nM in [2] (U937 cells, Table 1 section H3N2). The molecule also came in with a maximum non-toxic concentration in data set [2] of 1 µM. For the same molecule, the IC50 in data set [4] is less than 20 nM; in data set [6] (production of MCP-1 in U937 cells infected with influenza virus, Table 4) it was less than 20 nM; in data set [13] (phosphorylation of p38, western blot, Table 4, read-out: IC50 p-p38), 10 nM. The STAT1 phosphorylation levels result in data set [5] is listed as “significantly reduced”. Besides, the “phosphorylation level of ERK” value in data set [10] is given as “promoted”.
On to `Cc1ccc(C(=O)Nc2ccc(CN3CCN(C)CC3)c(C(F)(F)F)c2)cc1C#Cc1cnc2cccnn12` [Ponatinib], for which the EC50 in data set [1] (setting [20]) is 60 nM; in data set [1] (Homo sapiens, U-937), 270 nM; in [3] (Homo sapiens, U-937, read-out: EC50 MCP-1), 345 nM; in data set [4] (setting [20]) it was less than 5 nM; in [4] (Homo sapiens, U-937) it was 294 nM; in data set [6] (setting [20]), less than 5 nM. In addition, the EC50 in data set [6] (Homo sapiens, U-937) was 385 nM; in [7] (Homo sapiens, U-937), 59 nM; in data set [8] (Homo sapiens, U-937) it was 625 nM; in data set [9] (Homo sapiens, U-937), 714 nM; in [11] (Homo sapiens, U-937, read-out: EC50 IP-10), 833 nM; in data set [12] (Homo sapiens, U-937, read-out: EC50 IL-8), 833 nM. Also, the IC50 is 250 nM in data set [1] (Homo sapiens, U-937, read-out: IC50 IP-10); 300 nM in [4] (Homo sapiens, U-937); 400 nM in data set [6] (Homo sapiens, U-937); 180 nM in [13] (Homo sapiens, U-937, read-out: IC50 p-p38). In data set [2] (human), this molecule gave a maximum non-toxic concentration of 1 µM. For the same molecule, in [14], the STAT3 phosphorylation result is on record as “limited inhibition”. The “protection of mice from lethal influenza infection” value in data set [15] is reported as “protecting mice from lethal influenza infection”. The STAT1 phosphorylation levels result in data set [5] is listed as “significantly reduced”. The JAK2 activity entry in [16] was “weaker effect”. Further, the JAK1 activity result in data set [17] is “directly inhibit”. Moreover, the “phosphorylation level of ERK” value in data set [10] (24 h post-infection, western blot) is reported as “promoted”.
Regarding `C=CC(=O)N1CCC[C@@H](n2nc(-c3ccc(Oc4ccccc4)cc3)c3c(N)ncnc32)C1` [Ibrutinib (PCI-32765), Ibrutinib], in [18], the CC50 was more than 100000 nM. Moreover, in data set [4] (setting [20]), the EC50 is 1220 nM. Also, the “protection of mice from lethal influenza infection” value in [15] is listed as “protecting mice from lethal influenza infection”.
